Reference: ChEMBL document CHEMBL6127010, “NMR structures of small molecules bound to a model of a CUG RNA repeat expansion” (Bioorg Med Chem Lett, 2024)

System: r(CUG) repeat/Muscleblind-like protein 1
Test: Inhibition of 5'-biotinylated r(CUG) repeat (unknown origin) to His6-tagged MBNL1 (unknown origin) complex formation preincubated for 5 mins followed by compound addition for 15 mins prior to streptavidin-XL664 and anti-His6-Tb antibody addition for 1 hr by TR-FRET method
Format: protein assay

SMILES	IC50
N=C(N)Nc1ccc(OC(=O)c2ccc(NC(=N)N)cc2)cc1	8 µM
NCCN1CCN=C1c1ccc(C(=O)Nc2ccc(C3=NCCN3)cc2)cc1	19 µM
COc1cccc(Nc2cc(C)nc3ccc(C(=N)N)cc23)c1	100 µM
